Source: paper PMC11440500, “A De Novo Metalloenzyme for Cerium Photoredox Catalysis” (Journal of the American Chemical Society, 2024)

Tested on: T1, PLZ1.4 (PhotoLanZyme 1.4)
T1 construct: de novo design; single-chain fusion of two TFD subunits via one Gly; active-site W6 and W175 removed, two active-site mutations, eight surface mutations (6x D to N, 2x E to Q); loaded with CeCl3
Assay: Michaelis-Menten kinetics of photocatalytic diol cleavage
Format: biochemical, synthetic construct
Settings: CeCl3-loaded enzyme, visible light, aerobic, aqueous buffer

| Km ((R,R) isomer per Figure 2F) | Km | Compound |
| --- | --- | --- |
| 2.9 ± 0.4 mM |  | O[C@H](c1ccccc1)[C@H](O)c1ccccc1 [(R,R)-1] |
|  | 5.5 ± 1 mM | OCC(Oc1ccccc1)C(O)c1ccccc1 (centres unmarked) [compound 24, lignin surrogate 24] |
